# Tests used:
# HIV-1 infected cells = conditions: cultures of HIV-1 infected cells (Yamagoe 1991); cited from earlier work
# [1] = human, in vivo; cited from earlier work
# [2] = tested on: poly (ADP-ribose) synthetase; conditions: crude or partially purified enzyme (Banasik 1992); cited from earlier work
# [3] = rodents (Shibata 1989); cited from earlier work
# [4] = humans (Levy 1965); cited from earlier work
# [5] = Plasma nicotinamide, NAL and NAL-X levels by HPLC after i.p. nicotinylalanine with or without ASA in uninfected mice; format: in vivo, C57BL/6 mice; conditions: ASA at 20 and 100 mg/kg added to NAL
# Protocol: The concentration of nicotinamide and its major metabolites were determined by comparison of peak area ratios of the unknown versus internal standard (6-methylnicotinamide, Sigma Chemical Company) to the standard curves run in control mouse blood plasma.
# Mice were treated with racemic nicotinylalanine alone (400 mg/kg) or in combination with acetyl salicylic acid (ASA) at a dose of either 20 mg/kg or 100 mg/kg body weight. […] Control mice received the vehicle for the drug compositions, being phosphate buffered saline (PBS), at the same volume on the same dose schedule as the drug-treated mice. Chronic dosing was performed daily for two weeks, Monday through Friday, and one group of mice received only a single (acute) dose of nicotinylalanine. All mice were killed two hours after their final dose and blood was collected by cardiac puncture and stored on ice, until centrifugation in a microfuge at 10,000 rpm to obtain plasma.
# Concentrations of nicotinamide, nicotinamide-oxide, 1-methyl-nicotinamide, and nicotinylalanine extracted from 90% methanol, dried under N2, and reconstituted in water as above were determined by comparison of the peak area ratios of the unknown vs. the internal standard to the standard curve. Concentrations of the unidentified nicotinylalanine metabolite (NAL-X) were determined in the same way as above, except peaks were compared to the standard curve for known nicotinylalanine. The results are expressed as nanomoles of nicotinamide and nicotinylalanine per ml of plasma (nmol/ml).
# kynureninase = conditions: co-factor for kynureninase (Takeuchi and Shibata 1984); cited from earlier work
structure (smiles),measurement,setting,value
NC(=O)c1cccnc1 [nicotinamide],Antiviral activity (in words),HIV-1 infected cells,significant antiviral activity
same,Side effects,[1],without any significant side effects
same,Inhibition of poly (ADP-ribose) synthetase (in words),[2],effective inhibitors of poly (ADP-ribose) synthetase
same,Fraction converted to nicotinuric acid,[3],approximately 16%
NC(=O)c1ccccc1 [benzamide],Antiviral activity (in words),HIV-1 infected cells,significant antiviral activity
"CC(=O)Oc1ccccc1C(=O)O [ASA, acetylsalicylic acid, reference compound]",Fraction conjugated to form salicyluric acid,[4],up to 75%
same,Effect of added ASA on NAL-dependent nicotinamide plasma levels,[5],increases the NAL-dependent nicotinamide plasma levels in a dose-related manner
Cc1ncc(COP(=O)(O)O)c(C=O)c1O [pyridoxal phosphate],Rate of conversion of nicotinylalanine to nicotinamide (in words),kynureninase,increases the rate of conversion of nicotinylalanine to nicotinamide

# Source: patent US5916906A, “Compositions comprising nicotinylalanine and an inhibitor of glycine conjugation or vitamin B6” (priority 1997, dated 1999)
